Like-named read-outs stand apart in the source and are kept apart here. Cy5 = cyanine 5 dye
What was measured:
Good Vibes phage (GV) [1] = test: Monoclonal phage ELISA (cross-reactivity / validation) against GV; assay type: binding; settings: peptide displayed on monoclonal phage; cross-reactivity assay
Experimental: (§1) A Nunc Maxisorp flat-bottom 96-well plate was coated with 6×10^9 pfu GV per well (in TBS, pH 8) and incubated overnight at 4° C. Plates coated with 2% (w/v) bovine serum albumin (BSA) were used as negative controls. Next day, the plates were blocked with 2% (w/v) BSA at room temperature for 1 h, shaking at 800 rpm. The plates were then washed with 0.1% TBST (3×1 min) before adding 20 μL of amplified phage from each biopanning cycle to each well in 5% (w/v) BSA. After further incubation at room temperature for 1 h, shaking at 800 rpm, the plates were washed with 0.5% TBST (3×5 min) before adding 100 μL horseradish peroxidase (HRP)-conjugated anti-M13 monoclonal antibody (Abcam ab50370, diluted 1:500) and incubating at room temperature for 1 h, shaking at 800 rpm. After further washes in 0.5% TBST (3×5 min), Applicant added 100 μL of the tetramethylbenzidine (TMB) substrate (Thermo Fisher Scientific) to each well. The plates were incubated in the dark for 10 min and the absorbance was measured at 370 nm using an Infinite 200 Rx plate reader (Tecan Life Sciences) with 25 flashes in 96-well flat-bottom plate mode.
The protocol was similar to the polyclonal ELISA. […] Monoclonal phages differing in absorbance between GV and BSA by at least 0.3 units were isolated for DNA sanger sequencing (Eurofins Genomics). […]

Matera (MAT) = test: Monoclonal phage ELISA (cross-reactivity / validation) against MAT; assay type: binding, Matera (family Myoviridae); settings: peptide displayed on monoclonal phage; cross-reactivity assay
BSA = BSA (Bos taurus, UniProt P02769); test: Cross-reactivity ELISA against BSA (negative control); assay type: binding, bovine; settings: peptide displayed on monoclonal phage, cross-reactivity assay
Experimental: as §1
(§2) The protocol was similar to the polyclonal ELISA. Applicant coated wells with 10 μg cowpea mosaic virus (CPMV) or 1010 GV particles to assess their binding activity.

[2] = tested on: cowpea mosaic virus (CPMV); test: Cross-reactivity ELISA against CPMV; assay type: binding; settings: peptide displayed on monoclonal phage; cross-reactivity assay
Experimental: as §1, §2

[3] = tested on: GV bound to P. aeruginosa cells; test: Flow cytometry of GVBP-Cy5, cells with phages; assay type: binding, Good Vibes phage on Pseudomonas aeruginosa
Experimental: (§3) An overnight culture of P. aeruginosa was diluted 100-fold in fresh medium. The culture was incubated at 37° C. to reach OD600~0.2 before adding ~10^11 pfu of GV to the cells and incubating at 37° C. for 15 min. The cells were pelleted by centrifugation (6000 g, 15 min, at room temperature), washed once with 800 μL TM buffer (10 mM Tris base, 5 μM CaCl2), 10 mM MgSO4, pH 7.4) and resuspended in 200 μL of the same buffer. Applicant added GVBP-Cy5 (2×10^13 units) and incubated the mixture for 15 min at room temperature before centrifugal washing three times with 0.1% PBST (6000 g, 5 min, at room temperature). The pellet was resuspended in 200 μL TM buffer and the binding of GVBP-Cy5 to GV was analyzed using an Accuri C6 Plus flow cytometer (BD Biosciences). A total of 30,000 events were collected for each analysis.

Good Vibes phage (GV) [4] = test: GVBP-Cy5 ELISA; assay type: binding; settings: GV 0.1, 1, 10 or 63 μg coated; 0.05 μg peptide; fluorescence 647/665 nm; FIG. 5C
Experimental: Applicant then added 0.05 μg of GVBP-Cy5 peptide and incubated for 1 h. […] The fluorescence was measured using an Infinite 200 Rx plate reader with excitation and emission wavelengths of 647 and 665 nm, respectively, and a gain of 50.

P. aeruginosa cells = test: Flow cytometry of GVBP-Cy5, cells without phages; assay type: binding, Pseudomonas aeruginosa
Experimental: as §3

Good Vibes phage (GV) [5] = settings: GV 1, 10 or 65 μg coated; 0.01 μg peptide; absorbance 450 nm; FIG. 5B
Experimental: GV (1, 10 or 65 μg) was coated onto Nunc Maxisorp flat-bottom 96-well plates and incubated for 1 h at room temperature, shaking at 400 rpm. All incubation and washing steps were carried out at room temperature, shaking at 400 rpm, unless otherwise stated. The wells were blocked for 1 h with 300 μL 5% (w/v) BSA followed by washing once with 0.1% PBST for 5 min. Applicant then added 0.01 μg of GVBP-biotin peptide to the wells and incubated for 1 h. The wells were then washed three times with 0.1% PBST for 5 min each before adding streptavidin HRP conjugate (ab7403) diluted 1:10,000 and incubating for 30 min. The wells were washed another three times as above before adding 100 μL of TMB substrate and incubating for 5-10 min in the dark. The reaction was stopped by adding 50 μL 2M H2SO4 and the absorbance was measured at 450 nm using an Infinite 200 Rx plate reader as described above.

Good Vibes phage (GV) [6] = test: competitive ELISA, GVER2738 against GVER2738_SYBR on GV-coated wells and on BSA-coated wells

Molecule | ELISA signal against GV (Good Vibes phage (GV) [1]) | ELISA signal against MAT (Matera (MAT)) | ELISA signal against BSA (BSA) | ELISA signal against CPMV [2] | further results
WDLPPIGRLSGN [H2N-WDLPPIGRLSGN—CO2H] | strong signal | strong signal | not against CPMV or BSA | not against CPMV or BSA | –
H2N-WDLPPIGRLSGNGGGSK/Cy5/—CO2H (H-WDLPPIGRLSGNGGGSK(Cy5)-OH; also: C-terminal Cy5, attachment not given here) [GVBP-Cy5] | – | – | – | – | fluorescent signal (median fluorescence intensity, MFI) ([3]; cells and phages plus GVBP-Cy5, FIG. 6B): strongest fluorescent signal; APC+ shift ([3]; population containing both P. aeruginosa cells and GV phages, in the presence of GVBP-Cy5, FIG. 6A panel iv): 15.4%; binding to GV by flow cytometry ([3]; summary statement): significant binding; intensity of signal of bound peptide with increasing amounts of GV coating the plates (Good Vibes phage (GV) [4]): became stronger; fluorescent signal (median fluorescence intensity, MFI) (P. aeruginosa cells; in the absence of phage, FIG. 6B): weaker signal; APC+ shift (P. aeruginosa cells; population containing P. aeruginosa cells without phages, peptide added, FIG. 6A panel iii): 7.6%
H2N-WDLPPIGRLSGNGGGSK/biotin/—CO2H [GVBP-biotin] | – | – | – | – | intensity of signal of bound peptide with increasing amounts of GV coating the plates (Good Vibes phage (GV) [5]): became stronger
THLPPIMRNLQF | strong signal | strong signal | not against CPMV or BSA | not against CPMV or BSA | –
WDLPPIGRLSGN (modifications not checked) [monoclonal phage GVER2738 displaying the peptide …] | – | – | – | – | fold of KD value, GV against BSA (Good Vibes phage (GV) [6]): 12 times
